The values that follow come from patent US11819507B2, “Cholecalciferol sulfate salts and their use for the treatment of vitamin D deficiency” (CFSO GMBH, priority 2015, dated 2023).

The data set is described as follows: Applying the transdermal formulation of Example 8 to skin; residue on the skin checked by TLC. Type of data set: in vivo. To be noted: about 2 ml of the formulation of Example 8 applied in a thin layer, allowed to penetrate for 4 hours; skin wiped with 96% ethanol cotton pad, extract examined by TLC. The method, then:
About 2 ml of the formulation prepared in Example 8 were applied in a thin layer to the skin of a subject and allowed to penetrate for 4 hours. Subsequently, the skin was well wiped using a sterile cotton pad soaked with 96% ethanol. The cotton pad was boiled with additional 96% ethanol and squeezed. The ethanol was evaporated on a rotary evaporator, and a small amount of chloroform-methanol (9:1 Vol./Vol.) mixture was added to the flask.

As for `C=C1CCC(OS(=O)(=O)O)CC1=CC=C1CCCC2(C)C1CCC2C(C)CCCC(C)C.NCCCCC(N)C(=O)O` [L-lysine cholecalciferol sulfate], the “L-lysine cholecalciferol sulfate remaining on the skin (TLC on silica gel)” value is listed as “substantially no”.
